Data from patent US8541418B2, “Inhibitors of polo-like kinase” (Elan Pharmaceutical, Inc., priority 2009, dated 2013).
Read-outs that look alike come from different tables or passages of the source.

Assays:
Format in all cases: biochemical
PLK1 = PLK1 (Homo sapiens, UniProt P53350); experiment: PLK TR-FRET peptide assay, PLK1
PLK2 = PLK2 (Homo sapiens, UniProt Q9NYY3); experiment: PLK TR-FRET peptide assay, PLK2; settings: for IC50: PLK TR-FRET peptide assay, read-out: Plk2 IC50
PLK3 = PLK3 (Homo sapiens, UniProt Q9H4B4); experiment: PLK TR-FRET peptide assay, PLK3
PLK3, sequence (Q9H4B4 whole entry): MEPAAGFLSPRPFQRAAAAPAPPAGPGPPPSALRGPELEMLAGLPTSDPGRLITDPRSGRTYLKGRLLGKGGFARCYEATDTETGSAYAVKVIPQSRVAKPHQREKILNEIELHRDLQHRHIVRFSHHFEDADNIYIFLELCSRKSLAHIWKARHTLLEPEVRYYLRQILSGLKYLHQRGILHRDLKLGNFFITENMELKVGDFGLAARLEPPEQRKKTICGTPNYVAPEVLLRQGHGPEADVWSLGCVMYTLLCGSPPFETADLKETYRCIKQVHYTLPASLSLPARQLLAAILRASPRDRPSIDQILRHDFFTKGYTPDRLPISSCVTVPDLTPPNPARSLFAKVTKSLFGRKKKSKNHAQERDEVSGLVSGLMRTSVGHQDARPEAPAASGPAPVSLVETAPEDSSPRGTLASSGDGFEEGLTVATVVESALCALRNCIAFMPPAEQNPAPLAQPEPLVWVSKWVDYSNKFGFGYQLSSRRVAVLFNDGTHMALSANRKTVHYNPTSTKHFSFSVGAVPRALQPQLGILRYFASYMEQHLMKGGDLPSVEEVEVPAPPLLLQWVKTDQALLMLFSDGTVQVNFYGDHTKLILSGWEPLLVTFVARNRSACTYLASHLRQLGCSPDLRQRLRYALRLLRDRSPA

[1] = GST-PLK3, 15 min reaction, read-out: Plk3 IC50

PLK1, sequence (P53350 whole entry): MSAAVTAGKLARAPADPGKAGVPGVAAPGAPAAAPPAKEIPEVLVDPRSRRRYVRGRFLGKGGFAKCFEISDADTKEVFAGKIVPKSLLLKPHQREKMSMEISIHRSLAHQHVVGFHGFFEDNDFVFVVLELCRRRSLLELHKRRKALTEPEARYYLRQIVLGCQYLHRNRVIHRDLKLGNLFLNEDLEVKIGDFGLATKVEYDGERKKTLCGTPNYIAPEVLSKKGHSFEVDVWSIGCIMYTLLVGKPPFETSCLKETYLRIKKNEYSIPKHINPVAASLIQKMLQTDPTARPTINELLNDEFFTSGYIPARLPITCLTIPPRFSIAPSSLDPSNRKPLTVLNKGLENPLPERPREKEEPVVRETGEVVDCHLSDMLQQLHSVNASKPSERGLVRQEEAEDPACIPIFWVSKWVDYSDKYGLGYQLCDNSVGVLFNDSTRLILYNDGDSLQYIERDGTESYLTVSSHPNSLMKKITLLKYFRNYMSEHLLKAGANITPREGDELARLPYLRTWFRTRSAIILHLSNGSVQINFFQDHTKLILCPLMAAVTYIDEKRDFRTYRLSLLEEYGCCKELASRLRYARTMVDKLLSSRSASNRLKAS
PLK2, sequence (Q9NYY3 whole entry): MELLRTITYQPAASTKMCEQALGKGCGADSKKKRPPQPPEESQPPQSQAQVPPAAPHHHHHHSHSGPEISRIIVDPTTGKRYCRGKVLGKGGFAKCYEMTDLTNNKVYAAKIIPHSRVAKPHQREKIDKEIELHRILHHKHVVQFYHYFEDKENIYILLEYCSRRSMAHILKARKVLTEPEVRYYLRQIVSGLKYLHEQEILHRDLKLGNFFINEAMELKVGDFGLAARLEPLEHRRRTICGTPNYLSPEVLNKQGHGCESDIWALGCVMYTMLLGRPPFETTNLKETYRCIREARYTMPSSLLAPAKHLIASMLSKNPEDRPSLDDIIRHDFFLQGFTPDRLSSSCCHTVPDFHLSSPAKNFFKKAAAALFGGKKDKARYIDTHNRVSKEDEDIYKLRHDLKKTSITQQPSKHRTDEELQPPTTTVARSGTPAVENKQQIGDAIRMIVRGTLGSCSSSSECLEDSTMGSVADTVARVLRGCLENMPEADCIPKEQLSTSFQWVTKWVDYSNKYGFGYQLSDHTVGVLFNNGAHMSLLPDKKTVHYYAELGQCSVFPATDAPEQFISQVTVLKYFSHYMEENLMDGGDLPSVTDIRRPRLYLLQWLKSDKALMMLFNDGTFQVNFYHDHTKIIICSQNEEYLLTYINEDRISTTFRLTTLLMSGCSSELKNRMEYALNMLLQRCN

SMILES	IC50 (PLK1; GST-PLK1, 60 min reaction) [µM]	IC50 (PLK2; GST-PLK2, 60 min reaction) [µM]	IC50 (PLK3; [1]) [µM]	IC50 (PLK1; GST-PLK1) [µM]	IC50 (PLK2; GST-PLK2) [µM]	relative PLK2 activity of the enantiomers (PLK2; compared with the opposite enantiomer)	IC50 (PLK3; GST-PLK3, read-out: Plk3 IC50) [µM]
CC[C@@H]1C(=O)N(C)c2cnc(-n3ccnc3-c3cnccn3)nc2N1C1CC1 [Example 141, (R)-8-cyclopropyl-7-ethyl-5-methyl-2-(2-(pyrazin-2-yl)-1H-imidazol-1-yl)-7,8-dihydropteridin-6(5H)-one]	> 50	1 to 10	> 50	–	–	–	–
CN1C(=O)[C@H]2CCCN2c2nc(-n3ccnc3)ncc21 [Example 33, (R)-2-(1H-imidazol-1-yl)-5-methyl-6a,7,8,9-tetrahydropyrrolo[2,1-h]pteridin-6(5H)-one]	> 50	10 to 50	> 50	–	–	–	–
CC[C@@H]1C(=O)N(C)c2cnc(-n3ccnc3N3CCCC3)nc2N1C1CCCC1 [Example 86, (R)-8-cyclopentyl-7-ethyl-5-methyl-2-(2-(pyrrolidin-1-yl)-1H-imidazol-1-yl)-7,8-dihydropteridin-6(5H)-one]	10 to 50	1 to 10	> 50	–	–	–	–
CN1C(=O)[C@H]2CCCN2c2nc(-c3ccncc3)ncc21 [Example 34, (R)-5-methyl-2-(pyridin-4-yl)-6a,7,8,9-tetrahydropyrrolo[2,1-h]pteridin-6(5H)-one]	> 50	> 50	> 50	–	–	–	–
CC[C@@H]1C(=O)N(C)c2cnc(-c3ccncc3CN)nc2N1C1CCCC1 [Example 105, (R)-2-(3-(aminomethyl)pyridin-4-yl)-8-cyclopentyl-7-ethyl-5-methyl-7,8-dihydropteridin-6(5H)-one]	10 to 50	10 to 50	> 50	–	–	–	–
CC[C@@H]1C(=O)N(C)c2cnc(-c3ccc(S(C)(=O)=O)cc3)nc2N1C1CCCC1 [Example 64, (R)-8-cyclopentyl-7-ethyl-5-methyl-2-(4-(methylsulfonyl)phenyl)-7,8-dihydropteridin-6(5H)-one]	< 1	< 1	1 to 10	–	–	–	–
CC[C@@H]1C(=O)N(C)c2cnc(-c3ccncc3CNS(=O)(=O)c3ccccc3)nc2N1C(C)C [Example 136, (R)—N-((4-(7-ethyl-8-isopropyl-5-methyl-6-oxo-5,6,7,8-tetrahydropteridin-2-yl)pyridin-3-yl)methyl)benzenesulfonamide]	10 to 50	1 to 10	> 50	–	–	–	–
CC[C@@H]1C(=O)N(C)c2cnc(-n3cnc(-c4nccs4)c3)nc2N1C1CCCC1 [Example 60, (R)-8-cyclopentyl-7-ethyl-5-methyl-2-(4-(thiazol-2-yl)-1H-imidazol-1-yl)-7,8-dihydropteridin-6(5H)-one]	< 1	< 1	1 to 10	–	–	–	–
CC[C@@H]1C(=O)N(C)c2cnc(-c3ccncc3CNC(=O)c3ccccc3)nc2N1C(C)C [Example 130, (R)—N-((4-(7-ethyl-8-isopropyl-5-methyl-6-oxo-5,6,7,8-tetrahydropteridin-2-yl)pyridin-3-yl)methyl)benzamide]	> 50	> 50	> 50	–	–	–	–
CC[C@@H]1C(=O)N(C)c2cnc(-n3ccnc3C3=CCOCC3)nc2N1C1CCCC1 [Example 84, (R)-8-cyclopentyl-2-(2-(3,6-dihydro-2H-pyran-4-yl)-1H-imidazol-1-yl)-7-ethyl-5-methyl-7,8-dihydropteridin-6(5H)-one]	1 to 10	< 1	10 to 50	–	–	–	–

Continued, values first:

IC50 (PLK1; GST-PLK1, 60 min reaction) [µM]	IC50 (PLK2; GST-PLK2, 60 min reaction) [µM]	IC50 (PLK3; [1]) [µM]	IC50 (PLK1; GST-PLK1) [µM]	IC50 (PLK2; GST-PLK2) [µM]	relative PLK2 activity of the enantiomers (PLK2; compared with the opposite enantiomer)	IC50 (PLK3; GST-PLK3, read-out: Plk3 IC50) [µM]	SMILES
1 to 10	< 1	1 to 10	–	–	–	–	CC[C@@H]1C(=O)N(C)c2cnc(-c3cn[nH]c3-c3ccccn3)nc2N1C(C)C [Example 313, (R)-7-ethyl-8-isopropyl-5-methyl-2-(5-(pyridin-2-yl)-1H-pyrazol-4-yl)-7,8-dihydropteridin-6(5H)-one]
> 50	1 to 10	> 50	–	–	–	–	CC(C)N1c2nc(-n3ccnc3-c3ccc(F)cc3)ncc2N(C)C(=O)C1(C)C [Example 298, 2-(2-(4-fluorophenyl)-1H-imidazol-1-yl)-8-isopropyl-5,7,7-trimethyl-7,8-dihydropteridin-6(5H)-one]
10 to 50	< 1	10 to 50	–	–	–	–	CC[C@@]12CCCN1c1nc(-n3ccnc3-c3cc(F)cc(F)c3)ncc1N(C)C2=O [Example 226, (S)-2-(2-(3,5-difluorophenyl)-1H-imidazol-1-yl)-6a-ethyl-5-methyl-6a,7,8,9-tetrahydropyrrolo[2,1-h]pteridin-6(5H)-one]
< 1	< 1	< 1	–	–	–	–	CC[C@@H]1C(=O)N(C)c2cnc(-n3ccnc3-c3ccccc3)nc2N1C(C)C1CC1 (stereo partly drawn) [Example 350, (7R)-8-(1-cyclopropylethyl)-7-ethyl-5-methyl-2-(2-phenyl-1H-imidazol-1-yl)-7,8-dihydropteridin-6(5H)-one]
> 50	> 50	> 50	–	–	–	–	CC[C@]12CCCCN1c1nc(-n3ccnc3-c3cc(F)c(F)c(F)c3)ncc1N(C)C2=O [Example 267, (R)-6a-ethyl-5-methyl-2-(2-(3,4,5-trifluorophenyl)-1H-imidazol-1-yl)-7,8,9,10-tetrahydro-5H-pyrido[2,1-h]pteridin-6(6aH)-one]
–	–	–	< 1	< 1	more active compound	< 1	CC[C@@H]1C(=O)N(C)c2cnc(-c3cn[nH]c3-c3nccs3)nc2N1c1ccc(Cl)cc1 [Example 382, (R)-8-(4-chlorophenyl)-7-ethyl-5-methyl-2-(5-(thiazol-2-yl)-1H-pyrazol-4-yl)-7,8-dihydropteridin-6(5H)-one]
1 to 10	< 1	1 to 10	–	–	–	–	CC[C@@H]1C(=O)N(C)c2cnc(-c3sc(N)nc3-c3ccn[nH]3)nc2N1C(C)C [Example 337, (R)-2-(2-amino-4-(1H-pyrazol-5-yl)thiazol-5-yl)-7-ethyl-8-isopropyl-5-methyl-7,8-dihydropteridin-6(5H)-one]
1 to 10	< 1	1 to 10	–	–	–	–	CC[C@@H]1C(=O)N(C)c2cnc(-n3ccnc3C(F)(F)F)nc2N1C1CCCC1 [Example 352, (R)-8-cyclopentyl-7-ethyl-5-methyl-2-(2-(trifluoromethyl)-1H-imidazol-1-yl)-7,8-dihydropteridin-6(5H)-one]
10 to 50	< 1	10 to 50	–	–	–	–	CC[C@@]12CCCN1c1nc(-n3ccnc3-c3cc(Cl)cc(Cl)c3)ncc1N(C)C2=O [Example 184, (S)-2-(2-(3,5-dichlorophenyl)-1H-imidazol-1-yl)-6a-ethyl-5-methyl-6a,7,8,9-tetrahydropyrrolo[2,1-h]pteridin-6(5H)-one]
< 1	< 1	1 to 10	–	–	–	–	CC[C@@H]1C(=O)N(C)c2cnc(-n3ccnc3-c3cccc(Cl)c3)nc2N1C(C)C [Example 204, (R)-2-(2-(3-chlorophenyl)-1H-imidazol-1-yl)-7-ethyl-8-isopropyl-5-methyl-7,8-dihydropteridin-6(5H)-one]
10 to 50	1 to 10	10 to 50	–	–	–	–	CCC12CCCCCN1c1nc(-n3nccc3-c3ccccc3)ncc1N(C)C2=O (stereo not shown) [Example 209, 6a-ethyl-5-methyl-2-(5-phenyl-1H-pyrazol-1-yl)-6a,7,8,9,10,11-hexahydroazepino[2,1-h]pteridin-6(5H)-one]
> 50	< 1	10 to 50	–	–	–	–	CC[C@@]12CCCN1c1nc(N3CCN=C3c3ccccc3)ncc1N(C)C2=O [Example 281, (S)-6a-ethyl-5-methyl-2-(2-phenyl-4,5-dihydro-1H-imidazol-1-yl)-6a,7,8,9-tetrahydropyrrolo[2,1-h]pteridin-6(5H)-one]
